Data from patent US9624235B2, “Compounds and methods for inhibition of AP endonuclease-1/redox factor-1 (HAPE1) activity” (University of Pittsburgh—Of the Commonwealth System of …, priority 2012, dated 2017).
Blank lines part the entries; values can stand above or below the molecule they belong to.

What was measured:
T98G cells [1] = experiment: MTT toxicity assay in T98G glioma cells; format: cell-based, human; conditions: FIG. 3(a)
Protocol: FIGS. 3(a)-(b). […] (b) Toxicity of MeLex (efficiently generates 3-mA) in the absence (o) and presence of 50 nM ( ) or 250 nM (∇) inhibitor 4.
Toxicity of APE1 Inhibitors in T98G Glioma Cells—A short term (MTT assay) and long term (clonogenic assay) dose response toxicity for the inhibitors was performed in T98G glioma cells in the absence of a DNA alkylating agent. This cell line was selected because it is quite resistant to many DNA alkylating agents; therefore, it represents a good model to test the potential effect of APE1 inhibition on the toxicity of DNA damaging compounds.

VERA kidney cell line = conditions: read-out: IC50 for the toxicity; cited from earlier work
[2] = biological target: APE-1 activity in T98G cell nuclear lysates (Homo sapiens (Human), UniProt P27695); experiment: Molecular beacon assay in T98G cell nuclear extracts; format: biochemical
Sequence of APE-1 activity in T98G cell nuclear lysates (P27695 whole entry, stated change not applied): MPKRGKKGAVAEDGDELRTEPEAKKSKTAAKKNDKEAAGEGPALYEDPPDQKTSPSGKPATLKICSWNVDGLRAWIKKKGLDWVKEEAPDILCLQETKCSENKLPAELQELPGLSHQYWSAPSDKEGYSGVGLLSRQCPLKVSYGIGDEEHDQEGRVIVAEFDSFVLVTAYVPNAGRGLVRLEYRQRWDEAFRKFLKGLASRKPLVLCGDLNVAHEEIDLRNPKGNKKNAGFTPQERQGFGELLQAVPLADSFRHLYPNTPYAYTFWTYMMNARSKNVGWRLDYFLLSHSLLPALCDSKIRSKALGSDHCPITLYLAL
Protocol: Isolation and Assay of APE-1 Protein from Nuclear Extracts of Glioma Cells. Human glioblastoma cells (T98G) were maintained in growth medium, i.e., Eagle's Minimum Essential Medium (EMEM) with 10% fetal bovine serum (FBS), […] gentamycin, 1×MEM non-essential amino acids and 1 mM sodium pyruvate. Cells were harvested by Trypsin-EDTA treatment, washed with 1×PBS and nuclear proteins isolated using the CelLytic NuCLEAR Extraction kit (Sigma-Aldrich) as per manufacturer's instructions. Isolated nuclear proteins were estimated colorimetrically (BCA protein assay) and stored at −80° C. (long term) or at −20° C. during regular use. To assay APE-1 activity in T98G cells, nuclear extracts were serially diluted in 10 mM HEPES, 50 mM KCl, 1 mM DTT, 20% (v/v) glycerol and the activities measured via the molecular beacon assay (as described above). […] EC2 nM of nuclear extracts was incubated with 2 to 500 nM hairpin DNA substrate and the V0 measured for each value of [S]. Finally, the apparent KM* was deduced using the software algorithm in Prism (as described previously), and the KM* was used to determine the apparent Ki*. Inhibition of EC2 nM APE-1 activity by the inhibitors was assayed via the molecular beacon assay (described above).
Inhibition of APE-1 Activity in Nuclear Lysates. The ability of 1-5 and 8 to block APE-1 endonuclease activity in a complex mixture of proteins from T98G cell nuclear lysates was tested using the molecular beacon assay. The APE-1 activity in the lysates was standardized to give ˜90% turnover of 25 nM substrate in 10 min.

T98G cells [3] = experiment: Long term (10-day) CyQUANT cytotoxicity assay; format: cell-based, human
Protocol: (§1) Cytotoxic Effects of APE-1 Inhibitors on Cultured Human Glioblastoma (T98G) Cells. Human glioblastoma cells (T98G) were maintained in growth medium as described above. […] The cells were allowed to attach and grow for 24 h, and then treated with serial dilutions of the drug for 72 h. After treatment, viable cells were measured by an MTS assay using the CellTiter 96 AQueous kit (Promega) as per manufacturer's instructions. […] The cells were allowed to attach and grow for 24 h and treated with serial dilutions of the drug for 240 h. After treatment, viable cells were measured using the CyQUANT cell proliferation assay kit (Invitrogen) as per manufacturer's instructions.
(§2) Toxicity. It was assumed that inhibition of APE-1 activity would be lead to toxicity since genetic deletion of the protein is lethal to cells. […] The toxicities were also determined in combination with the DNA minor groove methylating agent, MeLex. MeLex efficiently and selectively generates N3-methyladenine, which is converted into an abasic site by a BER glycosylase and/or hydrolytic depurination. The T98G cell line is relatively resistant to DNA damaging anticancer agents due to expression of multiple drug resistance proteins and O^6-alkylguanine-DNA alkyltransferase. […] A goal of the development of APE-1 inhibitors is to determine if they can be used to enhance the activity of DNA alkylating agents.

APE-1 [4] = biological target: T1, APE-1 (Homo sapiens (Human), UniProt P27695); experiment: Gel-based excision assay for APE-1 inhibitors; format: biochemical; conditions: APE-1 cleaved fragment vs. full length DNA substrate
T1 sequence (P27695 whole entry, the tested form may be a part): as the sequence (P27695 whole entry, stated change not applied) above
Protocol: (§3) Screening for APE-1 Inhibitors. […] In this assay, the DNA hairpin substrate has a 6-FAM fluorophore on the 5′-terminus, a DABACYL fluorescence quencher on the 3′-terminus and a THF abasic site located 6 base pairs from the 5′-terminus in the stem region (FIG. 6). APE-1 activity is monitored as an increase in fluorescence due to the release of the 5′-(6-FAM)-GCACT fragment as a function of time. […] In this assay, substrate turnover was calculated from relative intensities of cleaved vs. intact oligomers and correlated with inhibitor concentration.

APE-1 [5] = biological target: T1, APE-1; experiment: Molecular beacon assay for APE-1 endonuclease inhibition; format: biochemical; conditions: molecular beacon assay, endonuclease activity; read-out: Ki APE-1 endonuclease inhibition
Source text: Screening Assays for APE1 Inhibition—The initial screen was designed to look at the effect of potential inhibitors on APE1 repair kinetics. The approach can be used as a high throughput screen by choosing a specific timepoint to monitor. The screen utilizes a molecular beacon with a tetrahydrofuran (THF) abasic site within the stem region of a DNA hairpin that has a fluorophore on the 5′-terminus and a quencher on the 3′-terminus (FIG. 2a). […] An example of the molecular beacon screen and the excision assay are shown in FIGS. 2b,c and 2d, respectively.
Molecular Beacon Assay for Screening of APE-1 Inhibitors. A fluorescence-based molecular beacon assay to measure APE-1 protein activity and inhibition was performed as described previously with some modifications. Tang et al. Neuro Oncol. 13, 471-486 (2011) APE-1 (2 nM) in 10 mM HEPES (pH 7.8) 0.5 mM MgCl, 100 mM NaCl, 100 mM KCl, 0.0005% (w/v) BSA, was incubated with 20 nM 5′-(F)-CGACTXTTGAATTGACACGCCATGTCGATCAATTCAATAGTCG-(D)-3′ [X=tetrahydrofuran (THF) abasic site modification; F, 6-carboxyfluorescein (6-FAM); and D, DABCYL] that forms a hairpin with a 15 base pair stem and a 13 base loop. The THF modification is a known substrate for APE-1 excision. APE-1 mediated cleavage of the phosphodiester backbone at the THF-abasic site led to release of the 5′ 6-FAM (fluorophore) containing pentanucleotide, disrupting the Förster Resonance Energy Transfer (FRET) mediated quenching of the 6-FAM by DABCYL in the native hairpin oligomer. Since the signal was generated by continuous liberation of the fluorophore-labeled excision fragment, progress of this reaction could be monitored in real-time using a Cary Eclipse fluorescence spectrometer (Varian, Palo Alto, Calif.) or a Synergy H1 multi-well plate reader (BioTek, Winooski, Vt.). Reactions were optimized to yield ˜90% substrate turnover in 10 min, and fluorescence intensities measured every 12 s at 495 nm excitation and 520 nm emission. Data from the first 1-3 min of the assays (linear phase) were used to determine rate of substrate turnover (V0). The Michaelis constant (KM) was deduced experimentally, by incubating 2 nM APE-1 protein with 2-500 nM hairpin DNA substrate and measuring V0 —the experimentally observed V0 were analyzed as a function of substrate concentration [S] via non-linear regression using Prism (v.4; GraphPad Software, Inc., La Jolla, Calif.) and the KM was calculated as per the algorithm in the software package. To assay inhibition, 2 nM APE-1 protein was pre-incubated with 0.05-10.00 μM of the candidate inhibitors at 25° C. for 60 min, before initiating the excision assay by addition of hairpin DNA substrate. V0 was calculated at various concentrations of inhibitors and represented as inverse function of increasing inhibitor concentration [I]. […] All assays were carried out in three independent sets to obtain mean data and standard error of mean.
as §3

T98G cells [6] = experiment: Potentiation of MeLex cytotoxicity, short term (72 h) MTS assay; format: cell-based, human; conditions: 72 h MTS assay
Protocol: (§4) Cytotoxic Potentiation of Various DNA Damaging Agents. T98G cells maintained in growth medium were resuspended in fresh growth medium and seeded into 96-well plates at 2000 cells/well (short term cytotoxicity) or 100 cells/well (long term cytotoxicity) as described in the previous section. After 24 h, the cells were treated with serial dilutions of various DNA damaging drugs in absence or presence of APE-1 inhibitors. At the end of the treatment period, cell survival was assayed using CellTiter 96 AQueous or CyQUANT kits for the short- and long-term studies respectively.
as §2

APE-1 [7] = biological target: T1, APE-1; experiment: Displacement of 4 from APE-1 by E3330 (fluorescence); format: binding; conditions: 6 μM 4, 1 μM APE-1
Protocol: Fluorescence and UV Spectrometry Binding Studies. The fluorescence spectra were measured at room temperature on a Cary Eclipse fluorescence spectrometer (Varian, Palo Alto, Calif.). The fluorescence properties of 1 and 4 were measured in 10 mM HEPES, 0.5 mM MgCl2, 100 mM KCl, 100 mM NaCl, 2% glycerol, in absence or presence of wild type (unmodified) hairpin DNA (5′-[…]-3′) or THF-modified hairpin DNA (5′-CGAXTTCGCAGGACCGAATTCG-3′) or APE-1 protein. A solution of 0.5 μM of either DNA sequence was titrated against 1-10 μM ethidium bromide (EtBr) to determine saturation of EtBr by fluorescence (530 nm excitation with 610 nm emission) and the subsequent displacement of EtBr (4 μM) by 1-20 μM 1 or 4 was also assayed. The APE protein-inhibitor binding fluorescence was assayed by titrating 0.1-20 μM of 4 against 1 μM of APE-1 protein.
Interaction of Inhibitors with APE-1 Protein. To establish whether there is a direct interaction between an inhibitor and APE-1, the fluorescence spectra of 4 was determined in the absence and presence of increasing amounts of the protein.

T98G cells [8] = experiment: Short term (72 h) MTS cytotoxicity assay; format: cell-based, human; conditions: 72 h MTS assay
Protocol: as §1, §2

[9] = system: aldehyde reactive sites in genomic DNA from T98G cells; format: cell-based, human
Protocol: Quantification of Abasic Sites. T98G cells maintained in growth medium, were harvested by Trypsin-EDTA treatment, resuspended in fresh growth medium at a density of 2.5×10^5 cells mL^−1, and 2 mL (5×10^5 cells) of this suspension was seeded into the wells of a sterile 6-well tissue culture plate. Cells were allowed to grow for 24 h, treated with the various compounds for different time points and/or at different concentrations. At the end of each treatment, adherent cells were harvested by trypsin-EDTA treatment and pooled with live and dead cells in culture supernatant. Pooled cells in suspension were pelleted by centrifugation, washed with 1×PBS and genomic DNA was isolated using the DNAzol reagent (Invitrogen). DNA in solution was quantified by UV absorbance (λ260 nm) using a Synergy H1 multiwell plate reader (BioTek, Winooski, Vt.). Abasic sites in purified DNA were then reacted with the biotin-conjugated aldehyde reactive probe (ARP), immobilized onto 96-well ELISA plates, and detected using horseradish peroxidase (HRP)-conjugated streptavidin using a colorimetric substrate as per manufacturer's instructions (Dojindo Molecular Technologies, Rockville, Md.).
The biotin tagged ARS are quantified using an avidin-biotin assay, followed by colorimetric detection with horseradish peroxidase conjugated to avidin.

[10] = system: SKOV-3X ovarian tumor cells; conditions: read-out: IC50 for cell growth; cited from earlier work
T98G cells [11] = experiment: Potentiation of MeLex cytotoxicity, long term (10 d) CyQUANT assay; format: cell-based, human; conditions: LD10 concentration
Protocol: as §4, §2

[12] = system: HEYC-2 ovarian tumor cells; conditions: read-out: IC50 for cell growth; cited from earlier work

Structure (SMILES): CCn1c2ccccc2c2cc(/C=N/Nc3cc(C)nc4cc5c(cc34)OCO5)ccc21 [Inhibitor-1]
LD50 (T98G cells [1]): 960 nM

Ki [2]: 280 nM | IC50 (APE-1 [4]): 2900 nM | Ki (APE-1 [5]): 190 nM
Structure (SMILES): Cc1cc(N/N=C/c2ccc3c(c2)OCO3)c2cc3c(cc2n1)OCO3 [Compound 3]
IC50 (VERA kidney cell line): 630 nM | IC50 (T98G cells [3]; Homo sapiens, T98G, assay not stated, read-out: toxicity observed in the glioma T98G line): 540 nM

Structure (SMILES): CCCCCCCCC/C(=C\C1=C(C)C(=O)C(OC)=C(OC)C1=O)C(=O)O [Compound E3330]
LD50 of MeLex in the presence of LD10 concentration of inhibitor (T98G cells [6]): 128 µM | E3330 concentration for approximately 50% decrease in the fluorescence of 4 (APE-1 [7]): approximately 12 μM | LD10 concentration (T98G cells [8]): 6.9 µM | effect on ARS ([9]; 0.25 μM compound alone): returned to control levels by 18 h | level of ARS in combination with MeLex ([9]; 80 μM MeLex + 0.25 μM compound, after 6 h): dropped off | LD10 concentration (T98G cells [3]; long term assay): 14.80 µM | IC50 [10]: ~35000 nM | potentiating the toxicity of MeLex (T98G cells [11]): little or no contribution | IC50 [12]: ~35000 nM
